For data set [1], the system named is Ba/F3 cell line stably expressing erythropoietin receptor (EpoR) and Jak2V617F. The data set is described as follows: Antiproliferative activity, CellTiter-Glo viability assay at 48h, Ba/F3 EpoR Jak2V617F. Particulars: EpoR Jak2V617F mutant Ba/F3 cells; FIG. 6. The format is cell-based, murine. As for the experimental part:
(§1) To assess anti-proliferative effects of inhibitors, cells were seeded at 10′000/200 ul with increasing inhibitor concentrations in triplicate. Proliferation was assessed at 48h using the CellTiter-Glo viability assay (Promega) and normalized to cell growth in medium with equivalent volume of DMSO.

Data set [2] relates to CD34+ peripheral blood mononuclear cells (PBMCs) of a MF patient. Description: Colony growth from CD34+ PBMCs of a MF patient. The format is cell-based, human. Particulars: FIG. 5A.
A further data set deals with MPLW515L mice. Description: MPLW515L mutant MPN mouse model. The format is in vivo. The following applies: oral gavage, FIG. 2D.
Another data set concerns Jak2V617F mice. The data set is described as follows: Jak2V617F knock-in mouse model (polycythemia vera phenotype), competitive BM transplant. The format is in vivo. The following applies: for reduction of hematocrit: Example 4, FIG. 5B.
The subject of data set [3] is JAK2V617F PV/MF mouse model. Description: JAK2V617F PV/MF mouse model, 14 consecutive days oral dosing (Example 3). The following applies: ruxolitinib 60 mg/kg BID, Compound A 75 mg/kg QD, 14 days; for body weight change: FIG. 4A; for bone marrow cellularity / bone marrow toxicity: FIG. 4B; for WBC count: FIG. 4C; for platelet count: FIG. 4D; for elevated hematocrit / splenomegaly: vs vehicle; for elevated hematocrit: FIG. 3A; for splenomegaly: FIG. 3B. An excerpt:
For treatment studies, bone marrow (BM) from primary Jak2V617F Vav-Cre CD45.2 mice was mixed 1:1 with Jak2 wild-type CD45.1 BM and transplanted into lethally irradiated CD45.1 recipients. Development of the MPN phenotype was confirmed by peripheral blood counts 2 months after BM transplantation. Mice were randomized to treatment groups according to blood counts and treated by oral gavage for 1-4 weeks.

Data set [4] deals with Ba/F3 cell line stably expressing erythropoietin receptor (EpoR) and wild-type JAK2. Description: Antiproliferative activity, CellTiter-Glo viability assay at 48h, Ba/F3 EpoR wild-type JAK2. The format is cell-based, murine. The following applies: EpoR Jak2 wild type Ba/F3 cells; FIG. 6. As for the experimental part: as §1
In general terms: ATP-based viability assays read luminescence as a measure of living cells.

The test system of data set [5] is ERK downstream targets RSK3 and DUSP6. Description: ERK signaling in splenocytes of Jak2V617F mice by Western blot. The following applies: FIG. 2A. The format is in vivo, mouse.

“Also recorded” adds a separate entry of the source.

Take `CNC[C@@H](NC(=O)c1ccc(-c2nc([C@H]3CC[C@H](O)[C@@H](F)C3)cnc2N)cc1F)c1cc(F)cc(Br)c1` [Compound A, 4-(3-amino-6-((1S,3S,4S)-3-fluoro-4-hydroxycyclohexyl)pyrazin-2-yl)-N-((S)-1-(3-bromo-5-fluorophenyl)-2-(methylamino)ethyl)-2-fluorobenzamide]: in data set [1], the “suppression of proliferation (decrease in IC50 value)” value is “ruxolitinib was superior to that of Compound A”. In data set [2], the “growth of colonies derived from CD34+ PBMCs” value is listed as “comparably suppressed growth”. Also, the “correction of leukocytosis (WBC count)” value in the data set with MPLW515L mice was “ruxolitinib was superior to that of Compound A”. Further, in the data set with Jak2V617F mice, the reduction of hematocrit result is on record as “comparable reduction”. The “polyglobulia or polycythemia (hematocrit levels)” value in the data set on Jak2V617F mice (oral gavage, FIG. 2B) was “potently corrected”. In addition, the “splenomegaly (spleen weight)” value with Jak2V617F mice (oral gavage, FIG. 2C) is reported as “potently corrected”. For the same molecule, in data set [3], the polycythemia result was “significantly normalizes”, the tolerability entry is on record as “well tolerated”, the body weight change entry was “lack of body weight loss” and the “bone marrow cellularity / bone marrow toxicity” value is recorded as “absence of bone marrow toxicity”. In data set [3], the WBC count result was “normal”, the platelet count result is “normal; also recorded: absence of thrombocytopenia”, the elevated hematocrit entry is “significantly normalized; also recorded: significantly reduced; also recorded: reduces” and the splenomegaly entry is recorded as “significantly normalizes; also recorded: significantly reduced”. Also, the “suppression of proliferation (decrease in IC50 value)” value in data set [4] is recorded as “ruxolitinib was superior to that of Compound A”. Also, the “activation of ERK downstream targets RSK3 and DUSP6” value in data set [5] is reported as “inhibited activation”.
In the case of `N#CC[C@H](C1CCCC1)n1cc(-c2ncnc3[nH]ccc23)cn1` [ruxolitinib, (R)-3-(4-(7H-pyrrolo[2,3-d]pyrimidin-4-yl)-1H-pyrazol-1-yl)-3-cyclopentylpropanenitrile, reference compound], the “growth of colonies derived from CD34+ PBMCs” value in data set [2] was “comparably suppressed growth”. Besides, the “correction of leukocytosis (WBC count)” value in the data set on MPLW515L mice was “superior to that of Compound A”. Also, in the data set on Jak2V617F mice, the reduction of hematocrit result was “comparable reduction”. In data set [3], the polycythemia result is given as “significantly normalized”, the tolerability entry was “well tolerated”, the body weight change entry is “lack of body weight loss” and the “bone marrow cellularity / bone marrow toxicity” value was “absence of bone marrow toxicity”. Moreover, in data set [3], the WBC count result is on record as “normal”, the platelet count result is reported as “normal; also recorded: absence of thrombocytopenia”, the elevated hematocrit entry is recorded as “significantly normalized” and the splenomegaly entry is recorded as “significantly normalized”. In data set [3] (listed as Ruxolitinib), the elevated hematocrit result is given as “significantly reduced” and the splenomegaly result was “significantly reduced”.

Source of the values: patent US20230372334A1, “USE OF AN ERK INHIBITOR FOR THE TREATMENT OF MYELOFIBROSIS” (Novartis AG, priority 2020, published 2023).
